Laboratory results published in US4022895A, “Substituted phenylglycylcephalosporins” (SmithKline Corporation, priority 1975, dated 1977).
Converted amounts (≈) assume the structure as drawn. Where two headings read alike, the source gives them in different places.

Columns and labels:
E. coli HH 33779 = assay: In vitro antibacterial activity (MIC); format: cell-based; settings: Escherichia coli, HH33779
Description: (§1) The compounds of this invention have antibacterial activity against Gram-positive and Gram-negative organisms. Minimum inhibitory concentrations (MIC's) ranged from 0.4 to >200 μg/ml in in vitro testing.

E.coli SK 12140 = assay: In vitro antibacterial activity (MIC); format: cell-based; settings: Escherichia coli, SK12140
Description: as §1

[1] = test system: Entero. aerog. ATCC 13048; assay: In vitro antibacterial activity (MIC); format: cell-based
Description: as §1

Kleb. pneumo. SK 1200 = assay: In vitro antibacterial activity (MIC); format: cell-based
Description: as §1

S.aureus HH 127 = assay: In vitro antibacterial activity (MIC); format: cell-based; settings: Staphylococcus aureus, HH127
Description: as §1

S.aureus SK 23390 = assay: In vitro antibacterial activity (MIC); format: cell-based; settings: Staphylococcus aureus, SK23390
Description: as §1

S.aureus Villaluz = assay: In vitro antibacterial activity (MIC); format: cell-based; settings: Staphylococcus aureus
Description: as §1

Shig. paradys HH 112 = assay: In vitro antibacterial activity (MIC); format: cell-based; settings: Shig. paradys HH 112, in vitro; read-out: MIC
Description: as §1

Strep. faecalis HH 34358 = assay: In vitro antibacterial activity (MIC); format: cell-based; settings: Enterococcus faecalis, HH34358; Strep. faecalis HH 34358, in vitro
Description: as §1

Kleb. pneumo. SK 4200 = assay: In vitro antibacterial activity (MIC); format: cell-based
Description: as §1

Proteus morgani 179 = assay: In vitro antibacterial activity (MIC); format: cell-based; settings: Proteus morgani 179, in vitro
Description: as §1

E.coli 12140 = assay: In vivo activity (ED50) against E.coli 12140
Klebs.pneumo. 4200 = assay: In vivo activity (ED50) against Klebs.pneumo. 4200
[2] = E. coli HH 33779, in vitro, read-out: MIC
[3] = E.coli SK 12140, in vitro, read-out: MIC
[4] = Entero. aerog. ATCC 13048, in vitro, read-out: MIC
[5] = Kleb. pneumo. SK 1200, in vitro, read-out: MIC
[6] = S.aureus HH 127, in vitro, read-out: MIC
[7] = S.aureus SK 23390, in vitro, read-out: MIC
[8] = Kleb. pneumo. SK 4200, in vitro, read-out: MIC
[9] = Escherichia coli, 12140, po, E.coli 12140, p.o.
[10] = Escherichia coli, 12140, sc, E.coli 12140, s.c.
[11] = po, Klebs.pneumo. 4200, p.o., read-out: ED50
[12] = sc, Klebs.pneumo. 4200, s.c., read-out: ED50

| Structure (SMILES) | MIC (E. coli HH 33779; [2]) [µg/mL] | MIC (E.coli SK 12140; [3]) [µg/mL] | MIC [1, 4] [µg/mL] | MIC (Kleb. pneumo. SK 1200; [5]) [µg/mL] | MIC (S.aureus HH 127; [6]) [µg/mL] | MIC (S.aureus SK 23390; [7]) [µg/mL] | MIC (S.aureus Villaluz) [µg/mL] | MIC (Strep. faecalis HH 34358) [µg/mL] | MIC (Kleb. pneumo. SK 4200; [8]) [µg/mL] | MIC (Proteus morgani 179; read-out: MIC) [µg/mL] | ED50 (E.coli 12140; [9]) [mg/kg] | ED50 (E.coli 12140; [10]) [mg/kg] | ED50 (Klebs.pneumo. 4200; [11]) [mg/kg] | ED50 (Klebs.pneumo. 4200; [12]) [mg/kg] | further results |
| --- | --- | --- | --- | --- | --- | --- | --- | --- | --- | --- | --- | --- | --- | --- | --- |
| CC1=C(C(=O)O)N2C(=O)C(NC(=O)C(N)c3ccc(OCC(=O)O)cc3)C2SC1 (racemic) [*08016, 7-[DL-α-amino-α-(4'-carboxymethoxyphenyl)acetamido]-3-desacetoxycephalosporanic acid] | 50 (≈ 119 µM) | 50 (≈ 119 µM) | 100 (≈ 237 µM) | 25 (≈ 59.3 µM) | 50 (≈ 119 µM) | 50 (≈ 119 µM) | > 200 | > 200 |  |  |  |  |  |  | MIC (Shig. paradys HH 112): 50 µg/mL (≈ 119 µM) |
| CC1=C(C(=O)O)N2C(=O)C(NC(=O)[C@H](N)c3ccc(OCC(N)=O)cc3)C2SC1 (stereo partly drawn) [Compound No. 00036, 7-[D-α-Amino-α-(4'-carbamylmethoxyphenyl)acetamido]-3-desacetoxycephalosporanic acid] | 50 (≈ 119 µM) | 25 (≈ 59.5 µM) | 100 (≈ 238 µM) | 25 (≈ 59.5 µM) | 3.1 (≈ 7.37 µM) | 3.1 (≈ 7.37 µM) | 200 (≈ 476 µM) | 50 (≈ 119 µM) | 25 (≈ 59.5 µM) |  |  |  |  |  | MIC (Shig. paradys HH 112): 12.5 µg/mL (≈ 29.7 µM) |
| N[C@@H](C(=O)NC1C(=O)N2C(C(=O)O)=C(CSc3c[nH]nn3)CSC12)c1ccc(OCC(=O)O)cc1 (stereo partly drawn) [Compound No. 03326, 7-[D-α-Amino-α-(4'-carboxymethoxyphenyl)acetamido]-3-(1,2,3-triazol-4-ylthiomethyl)-3-cephem-4-carboxylic acid] | 25 (≈ 48 µM) | 6.3 (≈ 12.1 µM) | 25 (≈ 48 µM) | 3.1 (≈ 5.96 µM) | 12.5 (≈ 24 µM) | 100 (≈ 192 µM) | 200 (≈ 384 µM) | 200 (≈ 384 µM) | 6.3 (≈ 12.1 µM) | 200 (≈ 384 µM) | 25 | 8.4 | 17.7 | 4.6 |  |
| Cc1nnc(SCC2=C(C(=O)O)N3C(=O)C(NC(=O)[C@H](N)c4ccc(SCC(=O)O)cc4)C3SC2)s1 (stereo partly drawn) [Compound No. 03616, 7-[D-α-Amino-α-(4'-carboxymethylthiophenyl)acetamido]-3-(5-methyl-1,3,4-thiadiazol-2-ylthiomethyl)-3-cephem-4-carboxylic acid] | 12.5 (≈ 22 µM) | 6.3 (≈ 11.1 µM) | 25 (≈ 44 µM) | 3.1 (≈ 5.46 µM) | 6.3 (≈ 11.1 µM) | 6.3 (≈ 11.1 µM) | 25 (≈ 44 µM) | 100 (≈ 176 µM) | 1.6 (≈ 2.82 µM) | 200 (≈ 352 µM) | 14.5 | 6.2 | 16 | 11.5 |  |
| N[C@@H](C(=O)NC1C(=O)N2C(C(=O)O)=C(CSc3c[nH]nn3)CSC12)c1ccc(SCC(=O)O)cc1 (stereo partly drawn) [Compound No. 04726, 7-[D-α-Amino-α-(4'-carboxymethylthiophenyl)-acetamido]-3-(1,2,3,-triazol-4-ylthiomethyl)-3-cephem-4-carboxylic acid] | 12.5 (≈ 23.3 µM) | 25 (≈ 46.6 µM) | 25 (≈ 46.6 µM) | 3.1 (≈ 5.78 µM) | 12.5 (≈ 23.3 µM) | 12.5 (≈ 23.3 µM) | 100 (≈ 186 µM) | 200 (≈ 373 µM) | 3.1 (≈ 5.78 µM) |  | 46 | 12.5 | 14.5 | 9.5 | MIC (Shig. paradys HH 112): 6.3 µg/mL (≈ 11.7 µM) |
| Cn1nnnc1SCC1=C(C(=O)O)N2C(=O)C(NC(=O)[C@H](N)c3ccc(OCC(N)=O)cc3)C2SC1 (stereo partly drawn) [Compound No. 32626, 7-[D-α-Amino-α-(4'-carbamylmethoxyphenyl)acetamido]-3-(1-methyl-1,2,3,4-tetrazol-5-ylthiomethyl)-3-cephem-4-carboxylic acid] | 25 (≈ 46.8 µM) |  |  |  |  | 6.3 (≈ 11.8 µM) | 50 (≈ 93.5 µM) | 200 (≈ 374 µM) | 6.3 (≈ 11.8 µM) | 100 (≈ 187 µM) | > 50 | 8.7 | > 50 | 15.5 | MIC (E.coli SK 12140): 12.5 µg/mL (≈ 23.4 µM); MIC [1]: 12.5 µg/mL (≈ 23.4 µM); MIC (Kleb. pneumo. SK 1200): 12.5 µg/mL (≈ 23.4 µM); MIC (S.aureus HH 127): 12.5 µg/mL (≈ 23.4 µM) |
| Cc1nnc(SCC2=C(C(=O)O)N3C(=O)C(NC(=O)[C@H](N)c4ccc(NCC(=O)O)cc4)C3SC2)s1 (stereo partly drawn) [Compound No. 48536, 7-[D-α-Amino-α-(4'-carboxymethylaminophenyl)acetamido]-3-(5-methyl-1,3,4-thiadiazol-2-ylthiomethyl)-3-cephem-4-carboxylic acid] | 6.3 (≈ 11.4 µM) | 3.1 (≈ 5.63 µM) | 12.5 (≈ 22.7 µM) | 3.1 (≈ 5.63 µM) | 12.5 (≈ 22.7 µM) | 12.5 (≈ 22.7 µM) | 100 (≈ 182 µM) | 100 (≈ 182 µM) | 1.6 (≈ 2.91 µM) | 2.5 (≈ 4.54 µM) | 6.4 | 2 | 12.5 | 7.8 |  |
| CC1=C(C(=O)O)N2C(=O)C(NC(=O)[C@H](N)c3ccc(NCC(=O)O)cc3)C2SC1 (stereo partly drawn) [Compound No. 51436, 7-[D-α-Amino-α-(4'-carboxymethylaminophenyl)acetamido]-3-desacetoxycephalosphoranic acid] | 25 (≈ 59.5 µM) | 25 (≈ 59.5 µM) | 100 (≈ 238 µM) | 50 (≈ 119 µM) |  |  | 200 (≈ 476 µM) | 200 (≈ 476 µM) |  |  |  |  |  |  | MIC (Kleb. pneumo. SK 4200): 12.5 µg/mL (≈ 29.7 µM); MIC (S.aureus HH 127): 12.5 µg/mL (≈ 29.7 µM); MIC (S.aureus SK 23390): 12.5 µg/mL (≈ 29.7 µM); MIC (Shig. paradys HH 112): 25 µg/mL (≈ 59.5 µM) |
| Cc1nnc(SCC2=C(C(=O)O)N3C(=O)C(NC(=O)[C@H](N)c4ccc(OCC(=O)O)cc4)C3SC2)s1 (stereo partly drawn) [Compound No. 59216, 7-[D-α-Amino-α-(4'-carboxymethoxyphenyl)acetamido]-3-(5-methyl-1,3,4-thiadiazol-2-ylthiomethyl)-3-cephem-4-carboxylic acid] | 12.5 (≈ 22.7 µM) | 6.3 (≈ 11.4 µM) | 12.5 (≈ 22.7 µM) | 6.3 (≈ 11.4 µM) | 6.3 (≈ 11.4 µM) | 25 (≈ 45.3 µM) | 100 (≈ 181 µM) | 100 (≈ 181 µM) | 3.1 (≈ 5.62 µM) | 200 (≈ 363 µM) | 25 | 9.5 | 21.5 | 4.8 |  |
| Cn1nnnc1SCC1=C(C(=O)O)N2C(=O)C(NC(=O)[C@H](N)c3ccc(SCC(=O)O)cc3)C2SC1 (stereo partly drawn) [Compound No. 70326, 7-[D-α-Amino-α-(4'-carboxymethylthiophenyl)acetamido]-3-(1-methyl-1,2,3,4-tetrazol-5-ylthiomethyl)-3-cephem-4-carboxylic acid] |  |  |  |  |  |  |  |  |  | 6.3 (≈ 11.4 µM) | 11 | 2.2 | 4 | 1.7 | ED50 (Klebs.pneumo. 4200; Klebs.pneumo. 4200, p.o.): 3 mg/kg; ED50 (Klebs.pneumo. 4200; Klebs.pneumo. 4200, s.c.): < 3 mg/kg |
| Cc1nnc(SCC2=C(C(=O)O)N3C(=O)C(NC(=O)[C@H](N)c4ccc(OCC(N)=O)cc4)C3SC2)s1 (stereo partly drawn) [Compound No. 71816, 7-[D-α-Amino-α-(4'-carbamylmethoxyphenyl)acetamido]-3-(5-methyl-1,3,4-thiadiazol-2-ylthiomethyl)-3-cephem-4-carboxylic acid] |  | 6.3 (≈ 11.4 µM) |  | 6.3 (≈ 11.4 µM) |  |  | 25 (≈ 45.4 µM) | 25 (≈ 45.4 µM) | 3.1 (≈ 5.63 µM) | 100 (≈ 182 µM) | 12.5 | 4.5 | 6.2 | 7.5 | MIC (E. coli HH 33779): 12.5 µg/mL (≈ 22.7 µM); MIC (Proteus morgani 179): 200 µg/mL (≈ 363 µM) |
| Cc1nnc(SCC2=C(C(=O)O)N3C(=O)C(NC(=O)[C@H](N)c4ccc(NCC(N)=O)cc4)C3SC2)s1 (stereo partly drawn) [Compound No. 72546, 7-[D-α-Amino-α-(4'-carbamylmethylaminophenyl)acetamido]-3-(5-methyl-1,3,4-thiadiazol-2-ylthiomethyl)-3-cephem-4-carboxylic acid] | 50 (≈ 91 µM) | 25 (≈ 45.5 µM) | 50 (≈ 91 µM) | 25 (≈ 45.5 µM) |  |  | 50 (≈ 91 µM) | 50 (≈ 91 µM) |  | > 200 |  |  |  |  | MIC (Kleb. pneumo. SK 4200): 12.5 µg/mL (≈ 22.7 µM); MIC (S.aureus HH 127): 12.5 µg/mL (≈ 22.7 µM); MIC (S.aureus SK 23390): 12.5 µg/mL (≈ 22.7 µM) |
| Cc1nnc(SCC2=C(C(=O)O)N3C(=O)C(NC(=O)[C@H](N)c4ccc(SCC(N)=O)cc4)C3SC2)s1 (stereo partly drawn) [Compound No. 86526, 7-[D-α-Amino-α-(4'-carbamylmethylthiophenyl)acetamido]-3-(5-methyl-1,3,4-thiadiazol-2-ylthiomethyl)-3-cephem-4-carboxylic acid] | 25 (≈ 44.1 µM) | 25 (≈ 44.1 µM) | 100 (≈ 176 µM) | 6.3 (≈ 11.1 µM) | 6.3 (≈ 11.1 µM) | 3.1 (≈ 5.47 µM) | 25 (≈ 44.1 µM) | 50 (≈ 88.2 µM) | 12.5 (≈ 22.1 µM) |  | 42 | 18 | 10 | 7.2 |  |
| CC1=C(C(=O)O)N2C(=O)C(NC(=O)[C@H](N)c3ccc(SCC(=O)O)cc3)C2SC1 (stereo partly drawn) [compound 99316, 7-[D-α-Amino-α-(4'-carboxymethylthiophenyl)acetamido]-3-desacetoxycephalosporanic acid] | 50 (≈ 114 µM) |  | 50 (≈ 114 µM) | 6.3 (≈ 14.4 µM) |  |  | 100 (≈ 229 µM) | > 200 |  | > 200 | 42 | 25 | 15.5 |  | MIC (E.coli SK 12140): 12.5 µg/mL (≈ 28.6 µM); MIC (Kleb. pneumo. SK 4200): 12.5 µg/mL (≈ 28.6 µM); MIC (S.aureus HH 127): 12.5 µg/mL (≈ 28.6 µM); MIC (S.aureus SK 23390): 12.5 µg/mL (≈ 28.6 µM) |
